Reference: PubChem BioAssay (NCI)
Several values for one entry are separate records, joined by “and”; a condition that tells them apart may be missing. Identical values can stand only once.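 The compound was tested at five concentrations on cells cultured in 96-well plates, with a 48-hour exposure period. GI50 = concentration required for 50% inhibition of growth. At the TGI there is no net growth.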 Non-standard residues stand in square brackets, D forms with d. Residues, ends and D or L forms follow the SMILES beside them. *: point of attachment. ONb = O=[N+]([O-])c1ccc(CO*)cc1; AllylGly = C=CC[CH](N)C(=O)O; Boc = CC(C)(C)OC(=O)*

What was measured:
Assay in all cases: NCI anticancer screen, dose series, 48 h
[1] = system: UACC-257 melanoma
[2] = system: HCT-15 colon
[3] = system: HCT-116 colon
[4] = system: MALME-3M melanoma
[5] = system: OVCAR-8 ovarian
[6] = system: EKVX NSCLC
[7] = system: NCI-H460 lung
[8] = system: OVCAR-5 ovarian
[9] = system: NCI-H226 lung
[10] = system: MDA-MB-435

Compound | TGI [1] | TGI [2] | TGI [3] | TGI [4] | TGI [5] | TGI [6] | TGI [7] | TGI [8] | TGI [9] | GI50 [1] | GI50 [5] | GI50 [10] | TGI [10] | GI50 [6] | GI50 [8] | GI50 [2] | GI50 [3] | GI50 [7] | GI50 [9] | GI50 [4]
COc1cc(CCc2ccc(OCCN(C)C)cc2)cc(OC)c1OC | > 100 µM | > 100 µM | > 100 µM | > 100 µM | > 100 µM | > 100 µM | > 100 µM | 88.4 µM | > 100 µM |  |  |  |  |  |  |  |  |  |  | 
CCc1cccc(C(C)C)c1NC(=O)C(=O)C(Cc1nc2ccccc2[nH]c1=O)C(=O)OC (stereo unspecified) | > 100 µM | > 100 µM | > 100 µM | > 100 µM | > 100 µM | > 100 µM | > 100 µM | > 100 µM | > 100 µM |  |  |  |  |  |  |  |  |  |  | 
COC(=O)C1CC2(CC3=C1CCCC3)OCCO2 (stereo unspecified) | > 100 µM | > 100 µM | > 100 µM | > 100 µM | > 100 µM | > 100 µM | > 100 µM |  |  |  |  |  |  |  |  |  |  |  |  | 
Cc1ccc(-[n+]2c3cc(N)c(C)cc3nc3cc(C)c(Nc4ccccc4)cc32)cc1 | 0.952 µM |  |  |  | > 100 µM | 1.03 µM |  | 1.48 µM |  | 0.242 µM | 0.103 µM | 0.0814 µM | 0.358 µM | 0.0651 µM | 0.357 µM |  |  |  |  | 
Cc1cc2c(c(C#N)c1C)NC(=O)CCC2=O | > 100 µM | > 100 µM | > 100 µM |  | > 100 µM | > 100 µM | > 100 µM |  |  |  |  |  |  |  |  |  |  |  |  | 
CCOc1ccccc1NC(=O)C(=O)CC(=O)c1c(C)n([O-])c2ccccc2[n+]1=O | > 100 µM | > 100 µM | > 100 µM | > 100 µM | > 100 µM | > 100 µM | > 100 µM | > 100 µM | > 100 µM |  |  |  |  |  |  |  |  |  |  | 
CC1=C(C(=O)Nc2c(C)cccc2C)C(c2ccc3c(c2)OCO3)C(C(=O)Nc2c(C)cccc2C)=C(C)N1 | 32.3 µM |  | 27.3 µM | 45.7 µM | 44.2 µM | 53.3 µM | 39.9 µM | 33.7 µM | 32.3 µM |  |  |  |  |  |  |  |  |  |  | 
O=c1c2ccccc2[nH]c(=S)n1-c1ccc(Br)cc1 | > 100 µM | > 100 µM | > 100 µM | > 100 µM | > 100 µM | > 100 µM | > 100 µM |  | > 100 µM |  |  |  |  |  |  |  |  |  |  | 
CC1OC(OCC2OC(Oc3c(-c4ccc(O)cc4)oc4cc(O)cc(O)c4c3=O)C(OC3OCC(O)(CO)C3O)C(O)C2O)C(O)C(O)C1O (stereo unspecified) | > 100 µM | 53.2 µM | > 100 µM | > 100 µM | > 100 µM | > 100 µM | > 100 µM | > 100 µM | > 100 µM |  |  |  |  |  |  |  |  |  |  | 
Cc1cnc2c(C)ccc([N+](=O)[O-])c2c1NCCCN(C)C | > 100 µM | > 100 µM | > 100 µM | > 100 µM | > 100 µM | > 100 µM | > 100 µM | > 100 µM | > 100 µM |  |  |  |  |  |  |  |  |  |  | 
Cn1c(=O)nc2n(-c3ccc(Cl)cc3)c3ccc(Cl)cc3nc-2c1=O | 14.5 µM | 26.5 µM | 20.9 µM |  | 52.5 µM | 28.7 µM | 33.7 µM | 29.6 µM | 27.9 µM |  |  |  |  |  |  |  |  |  |  | 
Nc1ccn(CCOC(=O)c2ccccc2)c(=O)n1 | > 100 µM | > 100 µM | > 100 µM | > 100 µM | > 100 µM | > 100 µM | > 100 µM | > 100 µM | > 100 µM |  |  |  |  |  |  |  |  |  |  | 
N#Cc1cn(C2OC(CO)C(O)C2O)c2ncnc(N)c12 (stereo unspecified) |  |  | > 100 µM |  | 0.889 µM and 0.178 µM |  |  |  |  |  | 0.0469 µM and 0.045 µM |  |  |  | 0.238 µM | < 0.0117 µM | 0.0264 µM and < 0.01 µM | < 0.0141 µM |  | 
O=C(Oc1ccc(Cl)cc1Cl)c1ccccc1Nc1ccnc(C(F)(F)F)c1 | 26 µM | 5.31 µM |  |  | 30.8 µM | 40.9 µM | 33.8 µM | 22 µM | 18.6 µM | 10.6 µM | 4.79 µM | 2.91 µM | 8.1 µM | 18.5 µM | 7.9 µM | 2.26 µM |  | 4.26 µM | 3.46 µM | 
CC[C@H](C)N(CCN)C(=O)c1cc2ccccc2c(-c2ccccc2Cl)n1 | 3.37 µM | 16.1 µM | 14.9 µM |  | 27.6 µM | 25.4 µM | 27.1 µM | 27.9 µM | 29.7 µM |  |  |  |  |  |  |  |  |  |  | 
CC1=C(C(=O)Nc2ccccc2C)C(c2ccccc2)C(C(=O)Nc2ccccc2C)=C(C)N1 | > 100 µM | > 100 µM | > 100 µM | > 100 µM | > 100 µM | > 100 µM | > 100 µM | > 100 µM | > 100 µM |  |  |  |  |  |  |  |  |  |  | 

Compound | TGI [1] | TGI [2] | TGI [3] | TGI [4] | TGI [5] | TGI [6] | TGI [7] | TGI [8] | TGI [9] | GI50 [1] | GI50 [5] | GI50 [10] | TGI [10] | GI50 [6] | GI50 [8] | GI50 [2] | GI50 [3] | GI50 [7] | GI50 [9] | GI50 [4]
O=C(CNc1nncs1)NO | > 100 µM | > 100 µM | > 100 µM | > 100 µM | > 100 µM | > 100 µM | > 100 µM | > 100 µM |  |  |  |  |  |  |  |  |  |  |  | 
COc1cccc2cc(C)c(C(=O)c3ccccc3)nc12 | > 100 µM | > 100 µM | > 100 µM | > 100 µM | > 100 µM | > 100 µM |  | > 100 µM | > 100 µM |  |  |  |  |  |  |  |  |  |  | 
Nn1c(-c2ccccc2)nc2ccc(Br)cc2c1=O | > 100 µM | > 100 µM | > 100 µM | > 100 µM | > 100 µM | > 100 µM | > 100 µM | > 100 µM | > 100 µM |  |  |  |  |  |  |  |  |  |  | 
ClCc1cccc(Cn2cnc3c(Cl)ncnc32)c1 | 37.1 µM | 4.64 µM | 3.07 µM |  | 42 µM | 34.1 µM | 36 µM | 4.32 µM | 4.38 µM | 20.2 µM | 22.1 µM | 1.69 µM | 3.29 µM | 18.6 µM | 2.08 µM | 2.17 µM | 1.48 µM | 11.7 µM | 2.15 µM | 
CC(=O)C1CC(C)=CCC12C(=O)Nc1ccccc12 (stereo unspecified) |  | > 100 µM | > 100 µM | > 100 µM | > 100 µM | > 100 µM | > 100 µM | > 100 µM | > 100 µM |  |  |  |  |  |  |  |  |  |  | 
O=C(O)CSc1n[nH]c(-c2ccc(O)cc2)n1 | > 100 µM | > 100 µM | > 100 µM | > 100 µM | > 100 µM | > 100 µM | > 100 µM | > 100 µM | > 100 µM |  |  |  |  |  |  |  |  |  |  | 
COc1ccc(-c2nc3sc(C)cn3c2/C=C/C(=O)c2cc(OC)c(OC)c(OC)c2)cc1 | 6.37 µM | > 100 µM | > 100 µM |  | 8.57 µM | > 100 µM |  | > 100 µM | > 100 µM | 2.49 µM | 3.23 µM | 2.61 µM | 7.49 µM | 4.04 µM | > 100 µM | 3.35 µM | 3.8 µM |  | 4.12 µM | 
O=C(O)c1c(-c2cccc3ccccc23)sc(-c2cccc3ccccc23)c1C(=O)O | > 100 µM | > 100 µM | > 100 µM | > 100 µM | > 100 µM | > 100 µM | > 100 µM | > 100 µM | > 100 µM |  |  |  |  |  |  |  |  |  |  | 
COc1cc(OC)c([C@@H]2OC(=O)C3C2C(=O)O[C@H]3c2cc(OC)c(OC)cc2OC)cc1OC (stereo partly specified) | > 100 µM | > 100 µM | > 100 µM |  | > 100 µM | > 100 µM | > 100 µM |  |  |  |  |  |  |  |  |  |  |  |  | 
CCOC(=O)[C@@]1(C)C=C2O[C@@H]3OC4(CCCCC4)O[C@@H]3C2=C2C(O)=CC=C(O)[C@]21C(=O)OC | > 68 µM | > 68 µM | > 68 µM | > 68 µM | > 68 µM | > 68 µM | > 68 µM | > 68 µM | > 68 µM |  |  |  |  |  |  |  |  |  |  | 
Cn1c2c(c3ccccc31)CCN(CCCCN1CCc3c(n(C)c4ccccc34)C1=O)C2 | > 100 µM | > 100 µM | > 100 µM | > 100 µM | > 100 µM | > 100 µM | > 100 µM | > 100 µM |  |  |  |  |  |  |  |  |  |  |  | 
CNC(P(=O)([O-])[O-])P(=O)([O-])[O-].N.N.[Pt+2] |  | > 100 µM | > 100 µM | > 100 µM | > 100 µM | > 100 µM | > 100 µM | > 100 µM | > 100 µM |  | > 100 µM |  |  | > 100 µM | > 100 µM | > 100 µM | > 100 µM | 51.2 µM | > 100 µM | > 100 µM
Cc1cc(C)nc(NS(=O)(=O)c2ccc(Nc3c4ccccc4nc4c(C(=O)Nc5ccc(S(=O)(=O)N=C(N)N)cc5)ccc(Cl)c34)cc2)n1 | > 100 µM |  | 51.5 µM | > 100 µM | 33.4 µM | > 100 µM | > 100 µM | > 100 µM | 58.1 µM |  |  |  |  |  |  |  |  |  |  | 
O=C1C(=O)N(C(=O)c2ccc(Cl)c(Cl)c2)c2ccccc21 |  |  |  |  | > 100 µM | > 100 µM |  | > 100 µM | > 100 µM |  |  |  |  |  |  |  |  |  |  | 
C=CCC(NC(=O)OC(C)(C)C)C(=O)NC(CCC(=O)OCc1ccc([N+](=O)[O-])cc1)C(N)=O (stereo unspecified) (Boc-[AllylGly]-Glu(ONb)-NH2; configuration not given here) | 31.7 µg/mL |  |  | 33.1 µg/mL |  | 61.7 µg/mL | 49.8 µg/mL |  |  | 16.2 µg/mL | 35.8 µg/mL |  |  | 22.8 µg/mL | 64.1 µg/mL |  |  | 24.7 µg/mL |  | 18.4 µg/mL
CC(=O)O/C=C(/C=C/OC(C)=O)C(C/C=C(\C)C#CC=C(C)C)OC(C)=O (stereo unspecified) | > 100 µM | 50.3 µM | 39 µM | > 100 µM | > 100 µM | > 100 µM | > 100 µM | > 100 µM | > 100 µM |  |  |  |  |  |  |  |  |  |  | 
